Laboratory results taken from US20150056310A1, “COSMETIC METHOD FOR INCREASING COLLAGEN EXPRESSION IN SKIN COMPRISING TOPICALLY APPLYING AN EXTRACT OF QUASSIA AMARA” (BASF Beauty Care Solutions France S.A.S., priority 2013, published 2015).

Test system: type I collagen protein expression in dermal fibroblast cells
Test: Increase in type I collagen protein expression in dermal fibroblast cells cultured in vitro (immunolabelling, confocal microscopy, image analysis)
Format: cell-based, human
Conditions: 3 days, dermal fibroblasts, ratio relative to nontreated cells (NT = 1), mean of 4 assays
Experimental: A Q. amara wood extract at 5% (w/w) obtained according to Example 1a) was tested on dermal fibroblast cells cultured in vitro. The extract was tested at final concentrations of 0.01% and 0.05% by volume in the culture medium. Preferentially, the final concentration was 0.01% (v/v).
Specifically, dermal fibroblasts from the abdomen of a donor were seeded into a culture chamber (8-well) and amplified in FGM (Fibroblast Growth Media) culture medium containing an antibiotic, normocin, for 3 or 4 days until confluence, the cell stage for which 100% of the cultured cells adhere to one another, forming a uniform cell layer.
The confluent cells were then treated in this same culture medium for 3 days with a Q. amara wood extract at a final concentration in the culture medium of 0.01% or 0.05% (v/v) (Table 1). Other control active ingredients were tested (Table 1): vitamin C (50 μg/ml) or retinaldehyde (1 μM) or TGFβ1 (1 ng/ml) (Transforming Growth Factor β1).
The culture media (FGM) containing the dermal fibroblast cells treated with an active agent, or the nontreated culture media, contained moreover 5 μg/ml of vitamin C, enabling the newly synthesized collagen to be secreted out of the cell.
After 3 days of incubation, the cells were rinsed with a phosphate buffered saline (PBS) buffer containing calcium, magnesium and antibiotics, and then fixed in cold methanol for 10 minutes with a view to performing immunolabelling.
An anti-type I collagen antibody was added to the medium with a view to performing immunolabelling.
The increase in type I collagen protein expression was observed by confocal microscopy (LSM 700, Zeiss, LePecq, France) and quantified by image analysis (FIG. 1).
The type I collagen protein expression was calculated as a ratio relative to a theoretical expression equal to 1 in the case of nontreated fibroblast cells (NT). The mean protein expression was obtained through the mean of 4 distinct assays (Table 1).

Molecule: CC1=C(/C=C/C(C)=C/C=C/C(C)=C/C=O)C(C)(C)CCC1 [Retinaldehyde, retinaldehyde]
- Mean increase in type I collagen protein expression (1 μM): 2.06

Molecule: O=C1O[C@H]([C@@H](O)CO)C(O)=C1O [Vitamin C, vitamin C]
- Mean increase in type I collagen protein expression (50 μg/ml): 2.31

Molecule: TGFβ: Transforming Growth Factor β1, control active ingredient
- Mean increase in type I collagen protein expression (1 ng/ml): 1.42
